Source: patent US10894798B2, “Substituted dihydropyrrolopyrazole derivative” (UBE INDUSTRIES, LTD., priority 2015, dated 2021)

How the values were obtained:
CDK2 = target: T1, CDK2 (Homo sapiens, UniProt P24941); experiment: CDK2 enzyme inhibition test; type: biochemical; settings: [γ-33P]ATP, MBP substrate; Ki=IC50/(1+S/Km); read-out: Ki value of CDK2 inhibitory activity
T1 construct: purchased Invitrogen Corp. PV3267
Method: The preparation of a buffer solution was performed by mixing a N-2-hydroxyethylpiperazine-N′-2-ethanesulfonic acid buffer solution (HEPES buffer solution) (pH 7.4), dithiothreitol (DTT), Triton X-100, and magnesium chloride (MgCl2). A 500 μM [γ-^33P]ATP solution was used by diluting a 10 mM ATP solution and a commercially available [γ-^33P]ATP solution (manufactured by Perkin Elmer, Inc., Code No. NEG-302H) with the buffer solution. A CDK2 solution was used by diluting commercially available CDK2 (manufactured by Invitrogen Corp., Catalog No. PV3267) with the buffer solution. A substrate solution was used by diluting myelin basic protein (MBP) with the buffer solution. As for the preparation of a reaction solution, the buffer solution, the 500 μM [γ-^33P]ATP solution, the CDK2 solution, and the substrate solution were mixed at 4° C. to obtain a reaction solution.
(§1) CDK2 enzyme reaction was performed by adding 5 μL of a test compound solution prepared with 10% DMSO/90% injectable distilled water, and 45 μL of the reaction solution in a 1.5 mL microtube at 4° C. and reacting in the microtube at 30° C. for 20 minutes in a water bath incubator. After the reaction, a 10% aqueous trichloroacetic acid (TCA) solution was added to each microtube while cooled to 4° C., and mixed in a vortex mixer to terminate the reaction. The resultant was left standing at 4° C. for 10 minutes and then centrifuged, and the supernatant was discarded. Next, a 2% aqueous trichloroacetic acid (TCA) solution was added thereto, mixed in vortex mixer, and then centrifuged, and the supernatant was discarded. This washing operation was performed twice. After the washing, precipitates were dissolved in a 1 N aqueous sodium hydroxide (NaOH) solution, and the energy quantity (radioactivity) of the reaction product was measured with a liquid scintillation counter.
The calculation of the inhibitory activity of the test compound against CDK2 was performed as a test compound concentration inhibiting 50% of the amount of ^33P bound to MBP (IC50 value) by using EXSUS (version 8.1.0, manufactured by CAC Exicare Corp.).
(§2) The calculation of a Ki value was performed according to the following calculation expression wherein S represents the concentration of ATP contained in the reaction solution, and Km represents a Michaelis-Menten constant: Ki=IC50/(1+S/Km)

[1] = test system: human large intestine cancer cell line (HCT-116); experiment: Human large intestine cancer (HCT-116) cell growth inhibition test; type: cell-based; settings: HCT-116, 72 h, culture for 3 days, sulforhodamine B, read-out: GI50 value, HCT-116 cell growth inhibition
Summary of the method: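 HCT-116 cells were seeded at 0.5 to 2.0×10^3 cells/well in McCoy's 5A with 10% FBS and dosed with compound at 0.1% final DMSO after overnight culture. Growth was measured by sulforhodamine B absorbance after 3 days. GI50 was calculated from the inhibition rate at each concentration.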

CDK7 = target: T2, CDK7 (Homo sapiens, UniProt P50613); experiment: CDK7 enzyme inhibition test; type: biochemical; settings: [γ-33P]ATP, MBP substrate, 60 min preincubation at 25°C; Ki=IC50/(1+S/Km); read-out: Ki value of CDK7 inhibitory activity
T2 construct: purchased Carna Biosciences, Inc. 04-108
T2 sequence (P50613 whole entry): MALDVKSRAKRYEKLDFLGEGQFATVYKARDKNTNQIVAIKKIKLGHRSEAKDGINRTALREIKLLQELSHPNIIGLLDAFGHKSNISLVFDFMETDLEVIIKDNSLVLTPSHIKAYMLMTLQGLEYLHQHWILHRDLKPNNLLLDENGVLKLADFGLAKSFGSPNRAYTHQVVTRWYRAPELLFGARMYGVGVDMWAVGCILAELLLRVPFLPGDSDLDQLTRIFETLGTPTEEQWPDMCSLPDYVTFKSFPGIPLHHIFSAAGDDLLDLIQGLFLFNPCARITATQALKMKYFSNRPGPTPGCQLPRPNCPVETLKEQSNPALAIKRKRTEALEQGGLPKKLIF
T2 sequence (P51946 whole entry partner): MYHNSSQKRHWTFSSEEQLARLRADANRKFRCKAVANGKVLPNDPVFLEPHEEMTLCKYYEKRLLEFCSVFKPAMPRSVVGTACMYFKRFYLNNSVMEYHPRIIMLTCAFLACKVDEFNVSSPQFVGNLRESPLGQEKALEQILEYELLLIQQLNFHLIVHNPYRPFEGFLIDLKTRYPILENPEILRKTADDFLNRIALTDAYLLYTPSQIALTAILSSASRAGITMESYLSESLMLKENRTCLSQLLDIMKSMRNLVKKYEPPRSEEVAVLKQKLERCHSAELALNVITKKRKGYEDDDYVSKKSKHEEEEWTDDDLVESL
T2 sequence (P51948 whole entry partner): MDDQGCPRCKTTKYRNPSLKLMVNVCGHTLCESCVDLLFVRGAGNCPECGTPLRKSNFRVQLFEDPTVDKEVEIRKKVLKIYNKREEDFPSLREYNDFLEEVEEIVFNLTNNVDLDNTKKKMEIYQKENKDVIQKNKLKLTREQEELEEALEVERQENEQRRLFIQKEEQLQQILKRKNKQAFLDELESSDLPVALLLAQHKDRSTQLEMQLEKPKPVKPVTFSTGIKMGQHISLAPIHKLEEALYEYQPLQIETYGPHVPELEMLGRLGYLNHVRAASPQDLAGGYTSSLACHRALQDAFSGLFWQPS
Summary of the method: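 Commercial human CDK7 with myelin basic protein substrate in HEPES pH 7.4 buffer with DTT, Triton X-100, MgCl2; compound preincubated 60 min at 25° C, then reaction run 20 min at 30° C after adding [γ-^33P]ATP (500 μM solution). TCA-precipitated ^33P-MBP counted by scintillation; IC50 converted to Ki via Ki=IC50/(1+S/Km).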

PLK1 = target: T3, PLK1 (Homo sapiens, UniProt P53350); experiment: PLK1 enzyme (polo-like kinase) inhibition test; type: biochemical; settings: [γ-33P]ATP, casein substrate; Ki=IC50/(1+S/Km); read-out: Ki value of PLK1 inhibitory activity
T3 construct: purchased Carna Biosciences, Inc. 05-157
T3 sequence (P53350 whole entry): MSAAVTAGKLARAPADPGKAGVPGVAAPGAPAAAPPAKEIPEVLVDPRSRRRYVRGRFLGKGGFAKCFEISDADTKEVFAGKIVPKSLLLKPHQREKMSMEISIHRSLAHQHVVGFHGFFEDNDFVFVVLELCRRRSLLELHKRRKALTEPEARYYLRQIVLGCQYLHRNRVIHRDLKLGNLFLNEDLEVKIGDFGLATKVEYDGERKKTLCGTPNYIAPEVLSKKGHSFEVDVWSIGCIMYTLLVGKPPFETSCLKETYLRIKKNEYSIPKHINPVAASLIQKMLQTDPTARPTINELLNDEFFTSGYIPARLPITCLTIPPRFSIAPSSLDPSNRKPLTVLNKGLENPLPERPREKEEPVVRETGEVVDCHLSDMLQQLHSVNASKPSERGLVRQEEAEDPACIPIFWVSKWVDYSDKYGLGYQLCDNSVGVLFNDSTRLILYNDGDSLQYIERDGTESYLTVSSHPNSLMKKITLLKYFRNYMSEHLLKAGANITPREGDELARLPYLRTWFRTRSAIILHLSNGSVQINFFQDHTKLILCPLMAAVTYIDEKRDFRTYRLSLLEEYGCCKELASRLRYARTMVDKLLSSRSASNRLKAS
Method: The preparation of a buffer solution was performed by mixing a 3-morpholinopropanesulfonic acid buffer solution (MOPS buffer solution) (pH 7.0), dithiothreitol (DTT), and magnesium acetate (Mg(CH3COO)2). A 1 mM [γ-^33P]ATP solution was used by diluting a 10 mM ATP solution and a commercially available [γ-^33P]ATP solution (manufactured by Perkin Elmer, Inc., Code No. NEG-302H) with the buffer solution. A PLK1 solution was used by diluting commercially available PLK1 (manufactured by Carna Biosciences, Inc., Catalog No. 05-157) with the buffer solution. A substrate solution was used by diluting casein with the buffer solution. As for the preparation of a reaction solution, the buffer solution, the 500 μM [γ-^33P]ATP solution, the PLK1 solution, and the substrate solution were mixed at 4° C. to obtain a reaction solution.
as §1, with “PLK1 enzyme reaction” for “CDK2 enzyme reaction”, “mixed in a vortex mixer,” for “mixed in vortex mixer,”
The calculation of the inhibitory activity of the test compound against PLK1 was performed as a test compound concentration inhibiting 50% of the amount of ^33P bound to casein (IC50 value) by using EXSUS (version 8.1.0, manufactured by CAC Exicare Corp.).
as §2

Work on `Cc1coc2c(NC(=O)N3Cc4c(NC(=O)C5([Si](C)(C)C)CCC5)n[nH]c4C3(C)C)c(F)ccc12` [IV-1061, N-(6-Fluoro-3-methylbenzofuran-7-yl)-6,6-dimethyl-3-[1-(trimethylsilyl)cyclobutanecarboxamido]-4,6-dihydropyrrolo[3,4-c]pyrazole-5(1H)-carboxamide] yielded a Ki (CDK2) of no less than 1000 nM, a GI50 [1] of no more than 100 nM and a Ki (CDK7) of no more than 50 nM. The Ki (PLK1) was no less than 5000 nM.
In the case of `Cc1c(F)cccc1NC(=O)N1Cc2c(NC(=O)C3([Si](C)(C)C)CCC3)n[nH]c2C1(C)C` [IV-357, N-(3-Fluoro-2-methylphenyl)-6,6-dimethyl-3-[1-(trimethylsilyl)cyclobutanecarboxamido]-4,6-dihydropyrrolo[3,4-c]pyrazole-5 (1H)-carboxamide], the Ki (CDK2) is reported as no less than 1000 nM, the GI50 [1] is reported as no more than 100 nM and the Ki (CDK7) is reported as no more than 50 nM. For the same compound, the Ki (PLK1) was no less than 5000 nM.
With `CC1(C)c2[nH]nc(NC(=O)C3([Si](C)(C)C)CC3)c2CN1C(=O)Nc1c(F)ccc2ccoc12` [III-1049, N-(6-Fluorobenzofuran-7-yl)-6,6-dimethyl-3-[1-(trimethylsilyl)cyclopropanecarboxamido]-4,6-dihydropyrrolo[3,4-c]pyrazole-5 (1H)-carboxamide] the Ki (CDK2) was no less than 1000 nM, the GI50 [1] was no more than 100 nM and the Ki (CDK7) was no more than 50 nM. For the same compound, the Ki (PLK1) was no less than 5000 nM.
`Cc1ccc(NC(=O)N2Cc3c(NC(=O)C4([Si](C)(C)C)CCC4)n[nH]c3C2(C)C)c(C)c1` [IV-377, N-(2,4-Dimethylphenyl)-6,6-dimethyl-3-[1-(trimethylsilyl)cyclobutanecarboxamido]-4,6-dihydropyrrolo[3,4-c]pyrazole-5(1H)-carboxamide] gave a Ki (CDK2) of no less than 1000 nM, a GI50 [1] of no more than 100 nM and a Ki (CDK7) of no more than 50 nM. It also gave a Ki (PLK1) of no less than 5000 nM.
`CC1(C)c2[nH]nc(NC(=O)C3([Si](C)(C)C)CCC3)c2CN1C(=O)Nc1c(Cl)cccc1Br` [IV-207, N-(2-Bromo-6-chlorophenyl)-6,6-dimethyl-3-[1-(trimethylsilyl)cyclobutanecarboxamido]-4,6-dihydropyrrolo[3,4-c]pyrazole-5 (1H)-carboxamide] showed a Ki (CDK2) of no less than 1000 nM, a GI50 [1] of no more than 100 nM and a Ki (CDK7) of no more than 50 nM. The Ki (PLK1) was no less than 5000 nM.
`Cc1ccc(F)c(NC(=O)N2Cc3c(NC(=O)C4([Si](C)(C)C)CCC4)n[nH]c3C2(C)C)c1Cl` [IV-703, N-(2-Chloro-6-fluoro-3-methylphenyl)-6,6-dimethyl-3-[1-(trimethylsilyl)cyclobutanecarboxamido]-4,6-dihydropyrrolo[3,4-c]pyrazole-5(1H)-carboxamide] was tested, and the Ki (CDK2) was no less than 1000 nM, the GI50 [1] was no more than 100 nM and the Ki (CDK7) was no more than 50 nM. It also gave a Ki (PLK1) of no less than 5000 nM.
Compound `Cc1ccc(Cl)c(NC(=O)N2Cc3c(NC(=O)C4([Si](C)(C)C)CCC4)n[nH]c3C2(C)C)c1F` [IV-629, N-(6-Chloro-2-fluoro-3-methylphenyl)-6,6-dimethyl-3-[1-(trimethylsilyl)cyclobutanecarboxamido]-4,6-dihydropyrrolo[3,4-c]pyrazole-5(1H)-carboxamide] has a Ki (CDK2) of no less than 1000 nM, a GI50 [1] of no more than 100 nM and a Ki (CDK7) of no more than 50 nM. The Ki (PLK1) was no less than 5000 nM.
Work on `CC1(C)c2[nH]nc(NC(=O)C3([Si](C)(C)C)CCC3)c2CN1C(=O)Nc1ccsc1` [IV-1045, 6,6-Dimethyl-N-(thiophen-3-yl)-3-[1-(trimethylsilyl)cyclobutanecarboxamido]-4,6-dihydropyrrolo[3,4-c]pyrazole-5(1H)-carboxamide] yielded a Ki (CDK2) of no less than 1000 nM, a GI50 [1] of no more than 100 nM and a Ki (CDK7) of no more than 50 nM. It also gave a Ki (PLK1) of no less than 5000 nM.
In the case of `Cc1ccc(Cl)cc1NC(=O)N1Cc2c(NC(=O)C3([Si](C)(C)C)CCC3)n[nH]c2C1(C)C` [IV-367, N-(5-Chloro-2-methylphenyl)-6,6-dimethyl-3-[1-(trimethylsilyl)cyclobutanecarboxamido]-4,6-dihydropyrrolo[3,4-c]pyrazole-5 (1H)-carboxamide], the Ki (CDK2) is reported as no less than 1000 nM, the GI50 [1] is reported as no more than 100 nM and the Ki (CDK7) is reported as no more than 50 nM. For the same compound, the Ki (PLK1) was no less than 5000 nM.
`CC1(C)c2[nH]nc(NC(=O)C(C)(C)[Si](C)(C)C)c2CN1C(=O)Nc1c(F)ccc2ccoc12` [II-1049, N-(6-Fluorobenzofuran-7-yl)-6,6-dimethyl-3-[2-methyl-2-(trimethylsilyl)propanamido]-4,6-dihydropyrrolo[3,4-c]pyrazole-5(1H)-carboxamide] gave a Ki (CDK2) of no less than 1000 nM, a GI50 [1] of no more than 100 nM and a Ki (CDK7) of no more than 50 nM. It also gave a Ki (PLK1) of no less than 5000 nM.
`CC1(C)c2[nH]nc(NC(=O)C3([Si](C)(C)C)CCC3)c2CN1C(=O)Nc1c(F)cccc1F` [IV-105, N-(2,6-Difluorophenyl)-6,6-dimethyl-3-[1-(trimethylsilyl)cyclobutanecarboxamido]-4,6-dihydropyrrolo[3,4-c]pyrazole-5(1H)-carboxamide] showed a Ki (CDK2) of no less than 1000 nM, a GI50 [1] of no more than 100 nM and a Ki (CDK7) of no more than 50 nM. It also gave a Ki (PLK1) of no less than 5000 nM.
With `CC1(C)c2[nH]nc(NC(=O)C(C)(C)[Si](C)(C)C)c2CN1C(=O)Nc1c(F)cccc1OC(F)F` [II-169, N-[2-(Difluoromethoxy)-6-fluorophenyl]-6,6-dimethyl-3-[2-methyl-2-(trimethylsilyl)propanamido]-4,6-dihydropyrrolo[3,4-c]pyrazole-5(1H)-carboxamide] the Ki (CDK2) was no less than 1000 nM, the GI50 [1] was no more than 100 nM and the Ki (CDK7) was no more than 50 nM. The Ki (PLK1) was no less than 5000 nM.
`CCc1ccccc1NC(=O)N1Cc2c(NC(=O)C3([Si](C)(C)C)CCC3)n[nH]c2C1(C)C` [IV-27, N-(2-Ethylphenyl)-6,6-dimethyl-3-[1-(trimethylsilyl)cyclobutanecarboxamido]-4,6-dihydropyrrolo[3,4-c]pyrazole-5(1H)-carboxamide] showed a Ki (CDK2) of no less than 1000 nM, a GI50 [1] of no more than 100 nM and a Ki (CDK7) of no more than 50 nM. It also gave a Ki (PLK1) of no less than 5000 nM.
`CC1(C)c2[nH]nc(NC(=O)C3([Si](C)(C)C)CCC3)c2CN1C(=O)Nc1c(Cl)cccc1C(F)(F)F` [IV-239, N-[2-Chloro-6-(trifluoromethyl)phenyl]-6,6-dimethyl-3-[1-(trimethylsilyl)cyclobutanecarboxamido]-4,6-dihydropyrrolo[3,4-c]pyrazole-5(1H)-carboxamide] showed a Ki (CDK2) of no less than 1000 nM, a GI50 [1] of no more than 100 nM and a Ki (CDK7) of no more than 50 nM. The Ki (PLK1) was no less than 5000 nM.
